Measurements taken from US9783541B2, “5′-nucleotidase inhibitors and therapeutic uses thereof” (Centre National de la Recherche Scientifique-CNRS, priority 2013, dated 2017).
Where two headings read alike, the source gives them in different places.

Experiments:
[1] = biological target: purified recombinant cN-II enzyme (Homo sapiens, UniProt P49902); assay: cN-II inhibition test (inorganic phosphate from IMP, Malachite green); assay type: biochemical; parameters: key to Inhibition strength (Strong/Medium/Weak): Strong; Medium; Weak
Experimental: The activity of cN-II is measured in vitro by following the appearance of the inorganic phosphate produced during the enzymatic reaction. The purified recombinant cN-II enzyme is used in the presence of its preferential substrate, inosine 5′-monophosphate (IMP). During the hydrolysis reaction, inosine and inorganic phosphate are produced from the IMP. This phosphate is then assayed by means of a colorimetric method using Malachite green (kit sold by the company Gentaur): the reading of absorbence at 630 nm makes it possible to quantify the inorganic phosphate.
The reagents used are: 50 mM imidazole buffer, pH=6.5, 500 mM NaCl and 10 mM MgCl2. The enzyme (cN-II) concentration is 0.1 μM and the IMP concentration is 100 μM.
A phosphate concentration range is performed in parallel in order to quantify the phosphate produced during the reaction.

[2] = test system: RL cancer line; assay: Synergy MTT test with cytotoxic nucleoside analogs; assay type: cell-based, Human; conditions: for Synergy MTT with cladribine / Synergy MTT with fludarabine / Synergy MTT with clofarabine: RL cells, 72 h, constant ratio, CI95; for Synergy MTT with cladribine: partner cladribine; for Synergy MTT with fludarabine: partner fludarabine; for synergistic effect with at least one of the three anticancer agents: cladribine, clofarabine, fludarabine; for Synergy MTT with clofarabine: partner clofarabine
Experimental: (§2) After 72 h of incubation, the living cells are quantified using the MTT reagent.
(§3) The inhibitory concentration 50 (IC50) and the combination index (CI95) are calculated with the CompuSyn software 1.0 (ComboSyn, Inc., USA).
The CI95 is calculated according to the method of Chou and Talalay^3 with a formula which takes into account the concentrations of the two compounds and the fraction affected at these concentrations (i.e. the dead cells).

[3] = test system: RL human follicular lymphoma cell line; assay: cytotoxicity on RL cancer line (MTT, IC50); conditions: for IC50: read-out: RL cancer line IC50, 72 h incubation, MTT
Experimental: as §2, §3

[4] = test system: cells of AML patients; assay: ex vivo cytotoxicity, Annexin V / propidium iodide flow cytometry, AML patient cells; assay type: cell-based, human; conditions: 100 μM, 24 hours
Experimental: (§1) Peripheral blood was recovered from patients suffering from chronic […] leukemia (LLC) or from acute myeloid leukemia (AML) in heparinized tubes. […] The cells having experienced an effect of the incubations are labeled with Annexin V alone or with propidium iodide (see FIG. 6).

[5] = test system: cells of CLL patients; assay: ex vivo cytotoxicity, Annexin V / propidium iodide flow cytometry, CLL patient cells; assay type: cell-based, human; conditions: 10 μM, 24 hours
Experimental: as §1

[6] = 200 μM compound, 0.1 μM cN-II, 100 μM IMP, pH 6.5, 37° C.

Sequence of purified recombinant cN-II enzyme (P49902 whole entry): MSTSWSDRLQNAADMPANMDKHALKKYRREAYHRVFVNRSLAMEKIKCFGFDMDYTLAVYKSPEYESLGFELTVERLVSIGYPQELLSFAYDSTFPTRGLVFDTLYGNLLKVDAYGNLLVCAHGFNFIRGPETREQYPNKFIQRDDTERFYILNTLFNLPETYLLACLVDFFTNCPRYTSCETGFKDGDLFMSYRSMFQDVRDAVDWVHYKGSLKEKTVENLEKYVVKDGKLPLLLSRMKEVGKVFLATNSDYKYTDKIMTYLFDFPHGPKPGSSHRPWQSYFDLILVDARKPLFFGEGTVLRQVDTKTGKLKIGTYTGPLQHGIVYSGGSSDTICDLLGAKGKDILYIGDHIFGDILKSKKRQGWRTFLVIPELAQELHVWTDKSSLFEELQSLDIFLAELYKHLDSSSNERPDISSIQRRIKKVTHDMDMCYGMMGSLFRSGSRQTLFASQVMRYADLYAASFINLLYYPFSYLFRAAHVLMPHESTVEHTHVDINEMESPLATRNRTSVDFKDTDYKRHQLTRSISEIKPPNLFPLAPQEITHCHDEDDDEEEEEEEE

Row | Compound | Inhibition cN-II in vitro (200 μM) [1, 6] | Inhibition strength (Strong/Medium/Weak) ([1]; cN-II) | Synergy MTT with cladribine [2] | Synergy MTT with fludarabine [2] | synergistic effect with at least one of the three anticancer agents [2] | IC50 [3] | further results
1 | O=C(Nc1ncnc2ncn(Cc3ccccc3)c12)c1cccc(-c2ccccc2)c1 [(19)] | 68 +/− 15% | S | Synergy with (CI95 values below 0.9 indicate synergy between the two compounds) | Synergy with (CI95 values below 0.9 indicate synergy between the two compounds) | synergistic effect | 60 µM | 
2 | 9-(phenylmethyl)-9H-purin-6-yl-[1,1′-biphenyl]-3-carboxamide [(20)] |  |  | Antagonistic with (values above 1.1 indicate antagonism) | Synergy with (CI95 values below 0.9 indicate synergy between the two compounds) | synergistic effect |  | Inhibition strength (Strong/Medium/Weak) [1]: S; Inhibition cN-II in vitro (200 μM) ([1]; pH 6.5): 58 +/−19%; Synergy MTT with clofarabine [2]: Antagonistic with (values above 1.1 indicate antagonism)
3 | Nc1ccn([C@@H]2O[C@H](CO)[C@@H](O)[C@@H]2O)c(=O)n1 [cytarabine] |  |  |  |  |  |  | Annexin V labeling, AML samples, mean over the five samples [4]: 44.5%
4 | Nc1nc(F)nc2c1ncn2[C@@H]1O[C@H](CO)[C@@H](O)[C@@H]1O [fludarabine] |  |  |  |  |  |  | Annexin V labeling, CLL samples [5]: 45.8%
5 | O=S(=O)(Nc1ncnc2[nH]cnc12)c1ccc(-c2ccccc2)cc1 [(33), 9H-purin-6-yl-[1,1′-biphenyl]-4-sulfonamide] | 70 +/− 5% | S |  |  |  | 195 µM | 
6 | (naphthalene-1-carbonylamino-9H-purin-6-yl)methylphosphonic acid [(31)] | 10% | W |  |  |  | 250 µM | 
7 | (naphthalene-2-carbonylamino-9H-purin-6-yl)methylphosphonic acid [(32)] | 10% | W |  |  |  | 145 µM | 
8 | O=C(Nc1ncnc2c1ncn2COCc1ccccc1)c1cccc(-c2ccccc2)c1 [(22), 9-[(phenylmethoxy)methyl]-9H-purin-6-yl-[1,1′-biphenyl]-3-carboxamide] | 43 +/− 7% | M |  |  |  | 188 µM | 
9 | O=C(Nc1ncnc2ncn(COCc3ccccc3)c12)c1cccc(-c2ccccc2)c1 [(21)] | 50 +/− 2% | M | Synergy with (CI95 values below 0.9 indicate synergy between the two compounds) | Additive with (values between 0.9 and 1.1 indicate additivity) | synergistic effect | 36 µM | Synergy MTT with clofarabine [2]: Synergy with (CI95 values below 0.9 indicate synergy between the two compounds); intrinsic cytotoxic activity, IC50 values ([3]; cell model used (RL)): a few micromolar to a few tens of micromolar
